From patent US20070111966A1, “Method for the treatment and/or prevention of urinary disorders” (priority 2005, published 2007)

Columns and labels:
[1] = tested on: Sprague-Dawley rats; experiment: Example 1: consumption of drink after oral gavage of diuretic polyols; type: in vivo; conditions: for water consumption compared with the control (in words): after polyol gavage; for water consumption over four days: control batch A 11.2
Protocol: (§1) A batch of rats were orally administered doses of diuretic polyols so as to measure the diuretic effect of said polyols and their possible influence on the amount of water drunk. The study was carried out on a batch of thirty rats, for 4 days, and the trial doses were administered at a rate of 2 ml per animal and per day of solutions at 250 g/litre of polyols. Water is distributed to the animals ad libitum. The amounts of urine output and of drink consumed are measured by weighing.
(§2) The amounts of drink are expressed in grams per animal and per day. Diuresis is expressed in millilitres as a function of time. • Batch A: control batch • Batch B: erythritol gavage • Batch C: mannitol gavage • Batch D: isosorbide gavage • Batch E: 1/1 isosorbide-mannitol mixture
Consumption of Drink (Means on Ten Rats)

[2] = tested on: Sprague-Dawley rats; experiment: Example 1: diuresis after oral gavage of diuretic polyols; type: in vivo; conditions: for Diuresis 45 min / Diuresis 1 h 35 min / Diuresis 3 h / Diuresis 5 h / Diuresis 7 h / Cumulative diuresis over 24 h / Diuresis Before gavage: means on ten rats; for Diuresis 45 min: control A 0.9; for Diuresis 1 h 35 min / Diuresis 7 h: control A 0.6; for Diuresis 3 h: control A 0.4; for Diuresis 5 h: control A 0.7; for Cumulative diuresis over 24 h: control A 11.7; for Diuresis Before gavage: control A 3.2
Protocol: as §1, §2
Diuresis (Means on Ten Rats, in Millilitres)

[3] = gavage 2 ml per animal and per day of 250 g/litre solution, means on ten rats

| Compound | water consumption compared with the control (in words) [1] | water consumption over four days [1, 3] [g/animal/day] | Diuresis 45 min [2] [millilitres] | Diuresis 1 h 35 min [2] [millilitres] | Diuresis 3 h [2] [millilitres] | Diuresis 5 h [2] [millilitres] | Diuresis 7 h [2] [millilitres] | Cumulative diuresis over 24 h [2] [millilitres] | Diuresis Before gavage [2] [millilitres] | water consumption ([1]; gavage 2 ml per animal and per day of 250 g/litre solution, means on ten rats, control batch A 24.8) [g/animal/day] | time from which an increase in diuresis is observed ([2]; after gavage) [h] |
| --- | --- | --- | --- | --- | --- | --- | --- | --- | --- | --- | --- |
| OC[C@@H](O)[C@@H](O)[C@H](O)[C@H](O)CO [C (mannitol), mannitol] | very slightly greater than the control | 13.9 | 0.3 | 0.3 | 0.7 | 0.5 | 1.3 | 16.5 | 3.0 | – | – |
| OC[C@@H](O)[C@@H](O)CO [B (erythritol), erythritol] | not greater than the control | – | 0.21 | 0.99 | 1.38 | 1.21 | 0.83 | 18.43 | 1.02 | 17.9 | ≥ 3 |
| O[C@@H]1CO[C@H]2[C@@H]1OC[C@@H]2O [D (isosorbide), isosorbide] | very slightly greater than the control | 13.1 | 1.5 | 1.1 | 1.2 | 1.1 | 0.6 | 13.0 | 2.4 | – | – |
